In patent publication US12338483B2, “Compositions and methods for logic-gated profiling of biologic activity” (Georgia Tech Research Corporation, priority 2019, dated 2025):
Bridge positions count the residues as written; N and C are the ends. Square brackets hold non-standard residues; d marks the D form. Ends that are not written are not given here.

Tests used:
[1] = biological target: T1, GzmB (Homo sapiens, UniProt P10144) and West Nile Virus NS3 protease; assay: Incubation of GzmB/MMP AND-gate sensor with GzmB and West Nile Virus NS3 protease; assay type: biochemical; conditions: sensor 5 μM; 300 nM GzmB and 100 nM protease; 1.5 hours; FIG. 21
T1 construct: West Nile Virus NS3 protease
Procedure: (§1) Next the protease activity sensor was incubated with GzmB and either MMP8 or one of two viral proteases (West Nile Virus NS3 protease and Tobacco Etch Virus protease) to show the AND-gate sensor can distinguish immune activity in tumors from viral infections (FIG. 21). The sensor produced low signals with the viral proteases compared to MMP8.
(§2) FIGS. 20-21 show mean change in fluorescence (7D, kinetic trace) after incubation of GzmB/MMP AND-gate sensor (5 μM) with (7C) 300 nM GzmB and/or 100 nM different MMP's or (7D) 300 nM GzmB and 100 nM West Nile Virus NS3 protease, Tobacco Etch Virus protease, or MMP8 for 1.5 hours, n=3.

[2] = biological target: T2, GzmB and Tobacco Etch Virus protease (Homo sapiens, UniProt P10144); assay: Incubation of GzmB/MMP AND-gate sensor with GzmB and Tobacco Etch Virus protease; assay type: biochemical; conditions: sensor 5 μM; 300 nM GzmB and 100 nM protease; 1.5 hours; FIG. 21
T2 construct: Tobacco Etch Virus protease
Procedure: as §1, §2

[3] = system: GzmB and MMPs; assay: Cleavage assay of GzmB/MMP AND-gate sensor with each MMP with and without GzmB; assay type: biochemical; conditions: sensor 5 μM; 300 nM GzmB and/or 100 nM different MMPs; 1.5 hours; all three MMPs; FIG. 20
Procedure: Then a cleavage assay was performed with the GzmB/MMP AND-gate sensor, testing the probe with each MMP with and without GzmB (FIG. 20).
as §2

[4] = biological target: T3, GzmB in supernatant of OT1 T-cell co-incubation with EL4 or EG7-OVA cells, and Thrb (UniProt P00734+P04187); assay: Cleavage assay with supernatant of transgenic T-cell killing assay as GzmB source, plus Thrb; assay type: cell-based, mice; conditions: nanoparticle-conjugated sensor 1 μM; 10% supernatant from EL4 and EG7-OVA co-incubation and/or 3.7 Thrb; 12 hours; FIG. 17
T3 construct: using the supernatant as a GzmB source and adding Thrb; endogenous in cells; host or cells: T cells from OT1 mice co-incubated with EL4 or EG7-OVA cells; supernatant used at 10%
Procedure: FIGS. 15-17 show an example of the disclosed AND-gate protease activity sensors used with a living system. The sensors were evaluated in an in vitro transgenic T-cell killing assay in which cytotoxic T-cells taken from OT1 mice were co-incubated with target cells EL4 and EG7-OVA (FIG. 15). OT1 T cells can recognize the OVA antigen and mount an immune response, so the T-cells would theoretically respond to the EG7-OVA cells but not to the EL4 cells. Supernatant was harvested from the co-incubation and quantified the immune response by GzmB secretion using ELISA (FIG. 16). The concentration was measured after overnight co-incubation at 37° C. with target cells, as measured by ELISA, n=3. It was confirmed that co-incubation of OT1 cells with EG7-OVA cells, but not with EL4 cells, increases GzmB secretion by OT1 cells.
Then we cleavage assays were run with the AND-gate sensors, using the supernatant as a GzmB source and adding Thrb. […] Data for EL4 and EG7-OVA were normalized by subtraction of trace using OT1-only supernatant, and data for EL4+Thrb and EG7-OVA+Thrb were normalized by subtraction of trace using OT1-only supernatant and Thrb.

[5] = system: GzmB and Thrb; assay: Cleavage assay of GzmB/Thrb AND-gate sensor with GzmB and/or Thrb; assay type: biochemical
Procedure: Next, the AND-gate logic protease sensor was tested in a cleavage assay.
Thus, the presence of even small amounts of a protease can be detected if the other protease is also present. FIGS. 13-14 show: mean change in fluorescence after incubation of the AND-gate sensor with (FIG. 13) 9.2 nM Thrb and varying concentrations of GzmB (0-150 nM) or (FIG. 14) 300 nM GzmB and varying concentrations of Thrb (0-4.6 nM) for 2 hours, n=2. For all fluorescent readings, samples were excited at 485 nm, emission was measured at 528 nm, and samples were incubated at 37° C.

T2 sequence (P10144 21-247): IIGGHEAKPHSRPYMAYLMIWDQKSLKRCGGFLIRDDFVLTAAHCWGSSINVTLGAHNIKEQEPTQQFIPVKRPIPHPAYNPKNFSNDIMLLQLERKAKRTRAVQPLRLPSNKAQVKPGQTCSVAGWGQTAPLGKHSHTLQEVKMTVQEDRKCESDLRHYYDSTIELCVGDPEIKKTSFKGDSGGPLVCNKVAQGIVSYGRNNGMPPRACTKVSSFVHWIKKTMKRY
T1 sequence (P10144 21-247): as above
T3 sequence (P04187 21-247, one chain of several): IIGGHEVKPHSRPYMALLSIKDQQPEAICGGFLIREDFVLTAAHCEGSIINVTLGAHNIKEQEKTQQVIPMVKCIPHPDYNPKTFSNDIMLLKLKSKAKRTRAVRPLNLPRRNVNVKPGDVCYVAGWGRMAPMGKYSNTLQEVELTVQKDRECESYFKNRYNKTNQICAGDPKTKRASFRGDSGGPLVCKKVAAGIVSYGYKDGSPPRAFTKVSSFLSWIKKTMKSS

Substance | signal with GzmB and West Nile Virus NS3 protease compared to MMP8 [1] | signal with GzmB and Tobacco Etch Virus protease compared to MMP8 [2] | change of fluorescent signal on addition of GzmB to MMPs [3] | signal (mean change in fluorescence) with T-cell co-incubation supernatant [4] | sensitivity of fluorescence to protease concentration ([5]; 9.2 nM Thrb with 0-150 nM GzmB, or 300 nM GzmB with 0-4.6 nM Thrb, 2 hours, FIGS. 13-14) | fluorescent signal, both proteases present together ([5]; nanoparticle-conjugated sensor 1 μM, 125 nM GzmB and 3.7 nM Thrb, 12 hours, FIG. 12) | fluorescent signal, either protease present alone ([5]; nanoparticle-conjugated sensor 1 μM, 125 nM GzmB or 3.7 nM Thrb, 12 hours, FIG. 12)
GzmB/MMP AND-gate sensor: AND-gate protease activity sensor (SEQ ID NO: 2) that probes both GzmB and MMPs (CGIEFDSGGKGAPAALRAAGGCK; MOD_RES (11)..(11) D-Gly) | low signals | low signals | drastically increased the fluorescent signal by over two-fold |  |  |  | 
GzmB/Thrb AND-gate sensor: Disulfide-cyclized peptide (SEQ ID NO: 1) with DABCYL quencher, 5-FAM reporter, GzmB and Thrb substrates and an azide for click conjugation (KCGIEFDSGGKGG[dF]PRSGGGCK; disulfide 2-21 (inferred); also: DABCYL quencher, 5-FAM reporter, azide for click conjugation) |  |  |  | high signal was attained only when Thrb was added to the GzmB-high OT1/EG7-OVA supernatant | very sensitive to small changes in the concentration of both proteases even in the nanomolar range | high fluorescent signal | not when either protease is present alone
